Source: PubChem BioAssay AID282 (DTP/NCI, 2004)
Several values for one entry are separate records, joined by “and”; a condition that tells them apart may be missing. Equal values may be shown once. Inconclusive results and toxic doses are left out.

System: BDF1 mice, L1210 terephthalanilide-resistant leukemia ip, survival T/C
Assay: NCI In Vivo Anticancer Drug Screen. Data for tumor model L1210 Leukemia resistant to A Terephthalanilide; NSC 38280 (intraperitoneal) in B6D2F1 (BDF1) mice
Details: endpoint: mean survival time, higher = longer survival
Protocol: The antitumor activity of compounds was measured in mice bearing transplantable tumors. Survival or tumor size were measured and the results are expressed as the measurement made in the treated group (T) divided by the measurement made in the vehicle treated control group (C). The tumor model used in this assay is L1210 Leukemia resistant to A Terephthalanilide; NSC 38280 (intraperitoneal) in B6D2F1 (BDF1) mice

[1] = dose: 12.5 mg/kg/injection, schedule: Q01DX Z (ip), vehicle: carboxymethylcellulose (CMC)
[2] = dose: 25.0 mg/kg/injection, schedule: Q01DX Z (ip), vehicle: carboxymethylcellulose (CMC)
[3] = dose: 25.0 mg/kg/injection, schedule: Q01DX010 (ip), vehicle: saline
[4] = dose: 50.0 mg/kg/injection, schedule: Q01DX010 (ip), vehicle: saline
[5] = dose: 100.0 mg/kg/injection, schedule: Q01DX010 (ip), vehicle: saline

O=c1[nH]cc(F)c(=O)[nH]1
T/C (dose: 0.37 mg/kg/injection, schedule: Q01DX Z (ip), vehicle: carboxymethylcellulose (CMC)): 102 % of control
T/C (dose: 0.75 mg/kg/injection, schedule: Q01DX Z (ip), vehicle: carboxymethylcellulose (CMC)): 114 % of control
T/C (dose: 1.5 mg/kg/injection, schedule: Q01DX Z (ip), vehicle: carboxymethylcellulose (CMC)): 117 % of control
T/C (dose: 5.0 mg/kg/injection, schedule: Q01DX010 (ip), vehicle: saline): 119 % of control
T/C (dose: 6.25 mg/kg/injection, schedule: Q01DX Z (ip), vehicle: carboxymethylcellulose (CMC)): 175 % of control
T/C (dose: 10.0 mg/kg/injection, schedule: Q01DX010 (ip), vehicle: saline): 119 % of control
T/C [1]: 185 % of control
T/C (dose: 20.0 mg/kg/injection, schedule: Q01DX010 (ip), vehicle: saline): 181 % of control and 198 % of control
T/C [2]: 227 % of control
T/C (dose: 40.0 mg/kg/injection, schedule: Q01DX010 (ip), vehicle: saline): 104 % of control and 110 % of control
T/C (dose: 100.0 mg/kg/injection, schedule: Q01DX Z (ip), vehicle: carboxymethylcellulose (CMC)): 94 % of control and 102 % of control

O=NN(CCCl)C(=O)NCCCl
T/C (dose: 6.25 mg/kg/injection, schedule: Q01DX010 (ip), vehicle: saline): 224 % of control
T/C (dose: 12.5 mg/kg/injection, schedule: Q01DX010 (ip), vehicle: saline): 105 % of control
T/C [3]: 89 % of control

c1ccc(CNc2ncnc3[nH]ncc23)cc1
T/C (dose: 8.0 mg/kg/injection, schedule: Q01DX010 (ip), vehicle: saline): 102 % of control and 107 % of control
T/C [1]: 97 % of control
T/C (dose: 16.0 mg/kg/injection, schedule: Q01DX010 (ip), vehicle: saline): 103 % of control and 114 % of control
T/C [2]: 109 % of control
T/C (dose: 32.0 mg/kg/injection, schedule: Q01DX010 (ip), vehicle: saline): 107 % of control
T/C (dose: 37.5 mg/kg/injection, schedule: Q01DX Z (ip), vehicle: carboxymethylcellulose (CMC)): 116 % of control
T/C (dose: 50.0 mg/kg/injection, schedule: Q01DX Z (ip), vehicle: carboxymethylcellulose (CMC)): 97 % of control
T/C (dose: 64.0 mg/kg/injection, schedule: Q01DX010 (ip), vehicle: saline): 99 % of control and 103 % of control

N[C@@H](Cc1ccc(N(CCCl)CCCl)cc1)C(=O)O
T/C (dose: 2.0 mg/kg/injection, schedule: Q01DX Z (ip), vehicle: carboxymethylcellulose (CMC)): 252 % of control
T/C (dose: 4.0 mg/kg/injection, schedule: Q01DX Z (ip), vehicle: carboxymethylcellulose (CMC)): 155 % of control
T/C (dose: 8.0 mg/kg/injection, schedule: Q01DX Z (ip), vehicle: carboxymethylcellulose (CMC)): 187 % of control
T/C (dose: 12.0 mg/kg/injection, schedule: Q01DX Z (ip), vehicle: carboxymethylcellulose (CMC)): 169 % of control
T/C (dose: 18.0 mg/kg/injection, schedule: Q01DX Z (ip), vehicle: carboxymethylcellulose (CMC)): 91 % of control

O=c1c(O)cccc2cc(O)c(O)c(O)c12
T/C [3]: 98 % of control
T/C [4]: 93 % of control
T/C [5]: 89 % of control

COc1cc(-c2ccc(Nc3ccccc3C(=O)O)c(OC)c2)ccc1Nc1ccccc1C(=O)O
T/C (dose: 67.0 mg/kg/injection, schedule: Q01DX010 (ip), vehicle: saline): 150 % of control and 159 % of control

C[C@]12C=CC(=O)C=C1CC[C@@H]1[C@@H]2[C@@H](O)C[C@@]2(C)[C@H]1CC[C@]2(O)C(=O)CO
T/C (dose: 12.5 mg/kg/injection, schedule: Q01DX010 (sc), vehicle: steriod suspending solution): 100 % of control
T/C (dose: 25.0 mg/kg/injection, schedule: Q01DX010 (sc), vehicle: steriod suspending solution): 100 % of control
T/C (dose: 50.0 mg/kg/injection, schedule: Q01DX010 (sc), vehicle: steriod suspending solution): 98 % of control
T/C (dose: 100.0 mg/kg/injection, schedule: Q01DX010 (sc), vehicle: steriod suspending solution): 95 % of control

CCOC(=O)NP(=O)(N1CC1(C)C)N1CC1(C)C (stereo not drawn)
T/C (dose: 5.0 mg/kg/injection, schedule: Q01DX Z (ip), vehicle: saline): 101 % of control
T/C (dose: 10.0 mg/kg/injection, schedule: Q01DX Z (ip), vehicle: saline): 115 % of control
T/C (dose: 20.0 mg/kg/injection, schedule: Q01DX Z (ip), vehicle: saline): 121 % of control
T/C (dose: 40.0 mg/kg/injection, schedule: Q01DX Z (ip), vehicle: saline): 151 % of control
T/C (dose: 62.0 mg/kg/injection, schedule: Q01DX Z (ip), vehicle: saline): 164 % of control
T/C (dose: 125.0 mg/kg/injection, schedule: Q01DX Z (ip), vehicle: saline): 236 % of control
T/C (dose: 250.0 mg/kg/injection, schedule: Q01DX Z (ip), vehicle: saline): 302 % of control
T/C (dose: 500.0 mg/kg/injection, schedule: Q01DX Z (ip), vehicle: saline): 100 % of control

CCN(CC)CCNc1ccc(C)c2sc3ccccc3c(=O)c12
T/C [3]: 101 % of control and 105 % of control
T/C (dose: 25.0 mg/kg/injection, schedule: Q01DX Z (ip), vehicle: water): 111 % of control
T/C [4]: 105 % of control and 111 % of control
T/C [5]: 111 % of control
T/C (dose: 100.0 mg/kg/injection, schedule: Q01DX Z (ip), vehicle: water): 115 % of control
